Patent US20220218679A1, “NOVEL COMPOUNDS AND PHARMACEUTICAL COMPOSITIONS THEREOF FOR THE TREATMENT OF INFLAMMATORY DISORDERS” (Galapagos NV, priority 2019, published 2022)
≈ marks a conversion by molar mass, not a printed value. Where two headings read alike, the source gives them in different places.

Assays:
[1] = Thermodynamic solubility; format: physicochemical; conditions: for solubility thermodynamic at 24 h: 37 °C, thermodynamic from solid
Source text: 4.2. Thermodynamic Solubility
Poor solubility, in particular poor thermodynamic solubility can limit the absorption of compounds from the gastrointestinal tract which in turn may reduce oral bioavailability.
Thermodynamic solubility investigates the solubility of a compound as a saturated solution in equilibrium, by opposition to kinetic solubility, which measures the solubility of a metastable solution where supersaturation may occur and provide over estimation of the actual solubility of the compound. (Klein, 2010)
4.2.2. Thermodynamic Solubility—Protocol 2
In a 8 mL glass vial, 1-2 mg of dry matter of compound were added and stirred with the suitable buffers (Fed State Simulated Intestine Fluid, FeSSIF, or Fasted State Simulated Intestine Fluid, FaSSIF, or Fasted State Simulated Gastric Fluid, FaSSGF, or phosphate buffer pH 7.4) for 24 h at r.t. (for the buffer pH 7.4) or 37° C. (for the GI fluids). The concentration of the mixture was 1 mg/mL.
A volume of 1000 μL were sampled, centrifuged for 10 min at 10 000 rpm and 500 μL of the supernatant were filtered on captiva plate. The samples were diluted in duplicates in DMSO (F100 and F10). Then, a final dilution (F100) in 80/20 H2O/MeCN containing the internal standard (warfarin) was used for LCMS-MS analysis.
A standard curve was made starting from a 40,000 ng/mL stock in DMSO, freshly prepared from dry matter. Then, successive concentrations at 15,000, 11,000, 6,000, 2,500, 1,000, 375, 150 and 75 ng/mL in DMSO were prepared.
Three quality control samples were made: one of 10,000, 1,500 and 200 ng/mL in DMSO, also starting from the DMSO working stock solution at 40,000 ng/mL.
The standard curve and quality controls were diluted a F100 in 80/20 H2O/MeCN (with internal standard) and analyzed on LC/MS-MS (API4000 or API5500).
The samples were analyzed on LC-MS with a flow rate of 0.6 mL/min. The mobile phase A was 0.1% formic acid in water and the mobile phase B was 0.1% formic acid in 90% MeCN and 10% of H2O. The sample was run under positive or negative ion spray on Pursuit C18—5 μm (2.0×20 mm) column, from Agilent.
The ratio analyte/internal standard peaks areas of the standard curve were plotted in a graph and a linear or polynomial of the second order equation was used to calculate the unknown concentrations of the test compound.
Solubility values were reported in μg/mL.

[2] = test system: CL097 triggered IFNα release in human whole blood; test: Ex vivo human IFNα release inhibition (human whole blood assay); format: cell-based; conditions: CL097 2 μg/mL, 3 h 30 min at 37° C.
Source text: 4.10.1. Ex Vivo Human IFNα and TNFα Release Inhibition (Human Whole Blood Assay)
The aim of the assay is to evaluate the activity of compounds of the invention on the activated TLR/IRAK-4 pathway in an ex vivo human whole blood setting. Toll-like receptors (TLRs) are pattern recognition receptors that recognize a wide variety of microbial molecules, called pathogen-associated molecular patterns (PAMPs). Human TLR7 and TLR8 recognize imidazoquinoline compounds (e.g., CL097—CAS n #1026249-18-2) and single stranded RNAs as their natural ligands. Activation of TLRs leads to the production of several cytokines (e.g., IFNα, TNFα, IL-8, IL-6) by the TLR agonist-treated cells, whereas IRAK4 leads to the production of IFNα. Cytokine release is used as readout in this assay and represents a measure for the level of inhibition of the TLR/IRAK-4 pathway by the tested compound. It should be noted that in the context of the complete organism, other sources for these cytokines exist that are not dependent on the TLR/IRAK-4 pathway, such as e.g., macrophages (upon activation of the Fcγ receptor (Yan et al., 2012)) or T cells (upon activation of the T cell receptor (Brehm et al., 2005)).
4.10.1.1. Experimental Design
Blood was collected from healthy volunteers into lithium heparin tubes by venipuncture, then gently inverted several times to prevent clotting and incubated for at least 15 min at 37° C. on a rocking mixer shaker. Then, 100 μL of blood was dispensed into polypropylene 96-well microplate and pre-incubated in duplicate with 0.3% DMSO or test compound at different concentrations (from 30 to 0.01 μM, 3-fold dilutions to get 0.3% DMSO at the final) for 15 min at 37° C. After this pre-incubation, blood was triggered with CL097 (2 μg/mL from 1 mg/mL solution in water; InvivoGen, tlrl-c97) for 3 h 30 min at 37° C. Microtubes were centrifuged at 5000×g for 10 min at 4° C. and approximately 40 μL of plasma were collected into a polystyrene 96-well plate. Plasma could be analyzed freshly, within 30 min after triggering, or frozen at −80° C. Finally, the quantification of TNFα and IFNα were performed in the plasma using AlphaLISA Kit for TNFα and IFNα according to the manufacturer's instructions and read on the Ensight (PerkinElmer).
A standard curve was created by plotting on log-log the mean […] on the y-axis against the concentration on the x-axis and a 4-parameters logistic regression (4PL) was made through the points. For each blood sample, the IFNα concentrations of the samples were determined from the fit. Data were then expressed as a percentage of inhibition (PIN) for each replicate using the formula:
With mean IFNα with CL097=mean IFNα concentration of replicate samples triggered with CL097; IFNαsample1=IFNα concentration of sample 1; mean IFNα with vehicle=mean IFNα concentration of replicate samples treated with vehicle.
Curve fitting for pIC50 determination were generated using mean PIN±sem. Graphs and pIC50 calculations were derived using Prism 5.03 software (GraphPad).

[3] = Fasted State Simulated Gastric Fluid (FaSSGF), fassgf or other biorelevant, Fasted State Simulated Gastric Fluid, read-out: Tsol FaSSGF
[4] = Fasted State Simulated Intestine Fluid (FaSSIF), fassif, Fasted State Simulated Intestine Fluid, read-out: Tsol FaSSIF
[5] = Fed State Simulated Intestine Fluid (FeSSIF), fessif, Fed State Simulated Intestine Fluid, read-out: Tsol FeSSIF

| solubility thermodynamic at 24 h [1, 3] [mg/mL] | solubility thermodynamic at 24 h [1, 4] [mg/mL] | solubility thermodynamic at 24 h [1, 5] [mg/mL] | IC50 ([2]; Homo sapiens) [µM] | Tsol FaSSGF ([1]; Fasted State Simulated Gastric Fluid, 24 h, 37° C.) [µg/mL] | Tsol FaSSIF ([1]; Fasted State Simulated Intestine Fluid, 24 h, 37° C.) [µg/mL] | Tsol FeSSIF ([1]; Fed State Simulated Intestine Fluid, 24 h, 37° C.) [µg/mL] | IC50 [2] [µM] | SMILES |
| --- | --- | --- | --- | --- | --- | --- | --- | --- |
| < 0.00075 | 0.00075 (≈ 1.72 µM) | 0.00601 (≈ 13.8 µM) | 1 to 5 |  |  |  |  | CC(C)(O)CCc1cc2cc(NC(=O)c3cccc(C(F)(F)F)n3)c(C(N)=O)cn2n1 [Compound 4, 2-(3-hydroxy-3-methylbutyl)-5-[[6-(trifluoromethyl)pyridine-2-carbonyl]amino]pyrazolo[1,5-a]pyridine-6-carboxamide] |
| 0.00196 (≈ 4.36 µM) | 0.00226 (≈ 5.03 µM) | 0.0142 (≈ 31.6 µM) | 1 to 5 |  |  |  |  | CNC(=O)c1cn2nc(CCC(C)(C)O)cc2cc1NC(=O)c1cccc(C(F)(F)F)n1 [Compound 5, 2-(3-hydroxy-3-methylbutyl)-N-methyl-5-[[6-(trifluoromethyl)pyridine-2-carbonyl]amino]pyrazolo[1,5-a]pyridine-6-carboxamide] |
|  |  |  |  | 818 | 34.5 | 52.7 | 1 to 5 | COc1cn2nc(CC(F)C(C)(C)O)cc2cc1NC(=O)c1cccn(C2CC2)c1=O (single isomer, unassigned; enantiomer b) [Compound 26, 1-cyclopropyl-N-[2-(2-fluoro-3-hydroxy-3-methyl-butyl)-6-methoxy-pyrazolo[1,5-a]pyridin-5-yl]-2-oxo-pyridine-3-carboxamide Enantiomer B] |
| < 0.00075 | < 0.00075 |  | > 5 |  |  |  |  | CNC(=O)c1cn2nc(C3CCOCC3)cc2cc1NC(=O)c1cccc(C(F)F)n1 [Compound 15, 5-[[6-(difluoromethyl)pyridine-2-carbonyl]amino]-N-methyl-2-tetrahydropyran-4-yl-pyrazolo[1,5-a]pyridine-6-carboxamide] |
| < 0.00075 | < 0.00075 | < 0.00075 |  |  |  |  |  | CNC(=O)c1cn2nc(C3CCCS(=O)(=O)C3)cc2cc1NC(=O)c1cccc(C(F)(F)F)n1 (centres unmarked) [Compound 8, 2-(1,1-dioxothian-3-yl)-N-methyl-5-[[6-(trifluoromethyl)pyridine-2-carbonyl]amino]pyrazolo[1,5-a]pyridine-6-carboxamide] |
| 0.106 (≈ 251 µM) | 0.000801 (≈ 1.9 µM) | 0.0276 (≈ 65.3 µM) | 1 to 5 |  |  |  |  | COc1cn2nc(CCC(C)(C)O)cc2cc1NC(=O)c1cccc(C(F)(F)F)n1 [Compound 3, N-[2-(3-hydroxy-3-methylbutyl)-6-methoxypyrazolo[1,5-a]pyridin-5-yl]-6-(trifluoromethyl)pyridine-2-carboxamide] |
|  | 0.0164 (≈ 38.6 µM) |  | 1 to 5 |  |  |  |  | COc1cn2nc(CCC(C)(C)O)cc2cc1NC(=O)c1cccn(C2CCC2)c1=O [Compound 21, 1-cyclobutyl-N-[2-(3-hydroxy-3-methyl-butyl)-6-methoxy-pyrazolo[1,5-a]pyridin-5-yl]-2-oxo-pyridine-3-carboxamide] |
| 0.104 (≈ 250 µM) | 0.016 (≈ 38.4 µM) | 0.093 (≈ 223 µM) | 0.5 to 1 |  |  |  |  | [2H]C([2H])([2H])C(O)(CCc1cc2cc(NC(=O)c3cccn(C4CC4)c3=O)c(OC)cn2n1)C([2H])([2H])[2H] [Compound 23, 1-cyclopropyl-N-[6-methoxy-2-[4,4,4-trideuterio-3-hydroxy-3-(trideuteriomethyl)butyl]pyrazolo[1,5-a]pyridin-5-yl]-2-oxo-pyridine-3-carboxamide] |
| 0.00845 (≈ 19.9 µM) | 0.00177 (≈ 4.17 µM) |  |  |  |  |  |  | COc1c(NC(=O)c2cccn(C3CC3)c2=O)cc2cc(CCC(C)(C)O)nn2c1C [Compound 13, 1-cyclopropyl-N-[2-(3-hydroxy-3-methyl-butyl)-6-methoxy-7-methyl-pyrazolo[1,5-a]pyridin-5-yl]-2-oxo-pyridine-3-carboxamide] |
| > 1 | 0.183 (≈ 397 µM) |  | 1 to 5 |  |  |  |  | CNC(=O)c1cn2nc(C3CCN(C)CC3)cc2cc1NC(=O)c1cccc(C(F)(F)F)n1 [Compound 12, N-methyl-2-(1-methyl-4-piperidyl)-5-[[6-(trifluoromethyl)pyridine-2-carbonyl]amino]pyrazolo[1,5-a]pyridine-6-carboxamide] |
|  | 0.00129 (≈ 3.11 µM) |  |  |  |  |  |  | NC(=O)c1cn2nc(C3CCOCC3)cc2cc1NC(=O)c1cccc(C(F)F)n1 [Compound 16, 5-[[6-(difluoromethyl)pyridine-2-carbonyl]amino]-2-tetrahydropyran-4-yl-pyrazolo[1,5-a]pyridine-6-carboxamide] |
| 0.00382 (≈ 8.79 µM) | 0.00396 (≈ 9.12 µM) |  | 1 to 5 |  |  |  |  | CCOc1cn2nc(CCC(C)(C)O)cc2cc1NC(=O)c1cccn(C(F)F)c1=O [Compound 9, 1-(difluoromethyl)-N-[6-ethoxy-2-(3-hydroxy-3-methyl-butyl)pyrazolo[1,5-a]pyridin-5-yl]-2-oxo-pyridine-3-carboxamide] |
|  | 0.0102 (≈ 26.5 µM) |  | 0.5 to 1 |  |  |  |  | COc1cn2nc(CCC(C)(C)O)cc2cc1NC(=O)c1cccn(C)c1=O [Compound 2, N-[2-(3-hydroxy-3-methylbutyl)-6-methoxypyrazolo[1,5-a]pyridin-5-yl]-1-methyl-2-oxopyridine-3-carboxamide] |
| > 1 | 0.028 (≈ 66.6 µM) | 0.0939 (≈ 223 µM) | 1 to 5 |  |  |  |  | COc1cn2nc(CCC(C)(C)O)cc2cc1NC(=O)c1cccn(C(F)F)c1=O [Compound 7, 1-(difluoromethyl)-N-[2-(3-hydroxy-3-methyl-butyl)-6-methoxy-pyrazolo[1,5-a]pyridin-5-yl]-2-oxo-pyridine-3-carboxamide] |
| 0.2 (≈ 484 µM) | 0.0285 (≈ 68.9 µM) | 0.105 (≈ 254 µM) | 0.0001 to 0.5 |  |  |  |  | [2H]C([2H])([2H])Oc1cn2nc(CCC(C)(C)O)cc2cc1NC(=O)c1cccn(C2CC2)c1=O [Compound 24, 1-cyclopropyl-N-[2-(3-hydroxy-3-methylbutyl)-6-(trideuteriomethoxy)pyrazolo[1,5-a]pyridin-5-yl]-2-oxopyridine-3-carboxamide] |
